Data published in US11844777B2, “Methods of treating autoimmune microvascular disorders” (PRIMUS PHARMACEUTICALS, INC., priority 2017, dated 2023).

Legend:
[1] = test system: streptozotocin-induced diabetic hamster cheek pouch; settings: cited from earlier work
[2] = test system: leukocyte and endothelial cell adhesion molecules; settings: variety of ischemia/reperfusion models; cited from earlier work
[3] = test system: digital ulcers; test: randomized, double blind, placebo controlled clinical trial of diosmin on digital ulcers; format: in vivo, human
Method: To evaluate the effect of diosmin on Raynaud's and digital ulcers, a randomized, double blind, placebo controlled clinical trial was conducted. In this trial, subjects were randomized to receive either 600 mg of diosmin or matching placebo twice daily. The trial recorded improvement/healing of ulcers. Subjects with ulcers who were not on active ulcer therapy were required to have at least one stable or worsening digital ulcer for at least one month and subjects receiving ulcer therapy were required to have at least one stable or worsening ulcer on stable therapy for at least two months and therapy was required to remain constant for the duration of the trial.

[4] = test system: rabbit ear veins; settings: 300 mg/kg/d from 7 days before to 4 days after sclerotherapy; p<0.001; cited from earlier work
[5] = cited from earlier work
[6] = test system: hamster cheek pouch; settings: pretreatment with 2, 20, 80 and 160 mg/kg/d; ischemia/reperfusion; cited from earlier work

In the case of `COc1ccc(-c2cc(=O)c3c(O)cc(O[C@@H]4O[C@H](CO[C@@H]5O[C@@H](C)[C@H](O)[C@@H](O)[C@H]5O)[C@@H](O)[C@H](O)[C@H]4O)cc3o2)cc1O` [diosmin, (7-[[6-O-(6-Deoxy-α-L-mannopyranosyl)-β-D-glucopyranosyl]oxy]-5-hydroxy-2-(3-hydroxy-4-methoxyphenyl)-4H-1-benzopyran-4-one)], the “number of leukocytes adhering to the endothelium after reperfusion” value ([1]; after reperfusion following 30 minutes of ischemia) is given as “deceased as did the number of leukocytes adhering to the endothelium”, the “number of capillary leaks induced by each of the test articles, bradykinin, and LTB4” value ([1]; pretreatment with diosmin, diabetic hamster cheek pouch) is given as “significantly reduced” and the “overexpression of leukocyte and endothelial cell adhesion molecules” value [2] is given as “inhibit”. The “Number of New Ulcers Appearing between Baseline and Week 4” value ([3]; 600 mg diosmin twice daily, Week 4, all digital ulcers (including 9 ulcers in 4 non-scleroderma subjects)) was 14, the “Number of Ulcers Healed at Week 4 Relative to Baseline” value ([3]; 600 mg twice daily, Week 4, healed/total ulcers, p 0.1251 vs placebo) was 18/43 and the “Number with >= 50% Improvement at Week 4 Relative to Baseline” value ([3]; 600 mg twice daily, Week 4, improved/total ulcers, p 0.0905 vs placebo) was 23/43. For the same compound, the “% with >= 50% Improvement at Week 4 Relative to Baseline” value ([3]; 600 mg twice daily, Week 4, p 0.0905 vs placebo) was “(53.5%)”, the “% of Ulcers Healed at Week 4 Relative to Baseline” value ([3]; 600 mg twice daily, Week 4, p 0.1251 vs placebo) was “(41.9%)” and the “Number of Ulcers Healed at Week 8 Relative to Baseline” value ([3]; 600 mg twice daily, Week 8, healed/total ulcers, p 0.0113 vs placebo) was 31/42. For the same compound, the “Number of Ulcers Healed at Week 8 Relative to Week 4” value ([3]; 600 mg twice daily, Week 8, healed/total ulcers, p 0.0600 vs placebo) was 18/37, the “Number with >= 50% Improvement at Week 8 Relative to Baseline” value ([3]; 600 mg twice daily, Week 8, improved/total ulcers, p 0.0018 vs placebo) was 39/42 and the “Number with >= 50% Improvement at Week 8 Relative to Week 4” value ([3]; 600 mg twice daily, Week 8, improved/total ulcers, p 0.0207 vs placebo) was 25/37. For the same compound, the “% with >= 50% Improvement at Week 8 Relative to Baseline” value ([3]; 600 mg twice daily, Week 8, p 0.0018 vs placebo) was “(92.9%)”, the “% of Ulcers Healed at Week 8 Relative to Baseline” value ([3]; 600 mg twice daily, Week 8, p 0.0113 vs placebo) was “(73.8%)” and the “% with >= 50% Improvement at Week 8 Relative to Week 4” value ([3]; 600 mg twice daily, Week 8, p 0.0207 vs placebo) was “(67.6%)”. For the same compound, the “% of Ulcers Healed at Week 8 Relative to Week 4” value ([3]; 600 mg twice daily, Week 8, p 0.0600 vs placebo) was “(48.6%)”, the functional capillary density [4] was “preserved” and the “increase in venous and arteriolar diameter” value [4] was “prevented”. For the same compound, the “number of adherent leukocytes” value [4] was “reduced”, the “number of capillary leakage sites” value [4] was “reduced” and the perivenous edema [4] was “reduced”. The “form found in blood after oral ingestion” value [5] was “Diosmetin” and the “arteriolar vasodilation, reduction in flow velocity and decrease in functional capillary density” value [6] was “reversed all these changes towards normal in a dose dependent manner”.
